In brackets after ≈: the same amount, converted by molar mass.
Columns and labels:
[1] = system: Staphylococcus epidermidis; assay: Antibacterial activity against methicillin-sensitive Staphylococcus epidermidis ATCC 12228 by agar dilution method; format: functional
[2] = system: Providencia rettgeri; assay: Antibacterial activity against Providencia rettgeri ATCC 31052 by agar dilution method; format: functional
[3] = system: Staphylococcus epidermidis; assay: Antibacterial activity against methicillin-sensitive Staphylococcus epidermidis 09-9 by agar dilution method; format: functional
[4] = system: Pseudomonas aeruginosa; assay: Antibacterial activity against Pseudomonas aeruginosa ATCC 27853 by agar dilution method; format: functional
[5] = system: Staphylococcus epidermidis; assay: Potency index, ratio of levofloxacin MIC to test compound MIC for methicillin-resistant Staphylococcus epidermidis 09-3; format: functional
[6] = system: Acinetobacter calcoaceticus; assay: Antibacterial activity against Acinetobacter calcoaceticus ATCC 19606 by agar dilution method; format: functional
[7] = system: Staphylococcus aureus; assay: Antibacterial activity against methicillin-sensitive Staphylococcus aureus 09-6 by agar dilution method; format: functional
[8] = system: Escherichia coli; assay: Antibacterial activity against extended-spectrum beta-lactamase-positive Escherichia coli 09-1 by agar dilution method; format: functional
[9] = system: Enterococcus faecalis; assay: Antibacterial activity against vancomycin-sensitive Enterococcus faecalis 09-8 by agar dilution method; format: functional
[10] = system: Enterococcus faecalis; assay: Antibacterial activity against vancomycin-sensitive Enterococcus faecalis ATCC 29212 by agar dilution method; format: functional
[11] = system: Proteus vulgaris; assay: Antibacterial activity against Proteus vulgaris ATCC 29905 by agar dilution method; format: functional
[12] = system: Klebsiella pneumoniae; assay: Antibacterial activity against extended-spectrum beta-lactamase-positive Klebsiella pneumoniae 09-25 by agar dilution method; format: functional
[13] = system: Staphylococcus aureus; assay: Potency index, ratio of levofloxacin MIC to test compound MIC for methicillin-resistant Staphylococcus aureus 09-13; format: functional
[14] = system: Staphylococcus aureus; assay: Potency index, ratio of vancomycin MIC to test compound MIC for methicillin-resistant Staphylococcus aureus 09-13; format: functional
[15] = system: Enterococcus faecium; assay: Antibacterial activity against vancomycin-resistant Enterococcus faecium 05-8 by agar dilution method; format: functional
[16] = system: Morganella morganii; assay: Antibacterial activity against Morganella morganii ATCC 25830 by agar dilution method; format: functional
[17] = system: Staphylococcus epidermidis; assay: Antibacterial activity against methicillin-resistant Staphylococcus epidermidis 09-3 by agar dilution method; format: functional
[18] = Cytotoxicity against HEK293T cells after 48 hrs by MTS assay; format: cell-based, HEK-293T; conditions: human
[19] = system: Serratia marcescens; assay: Antibacterial activity against Serratia marcescens 41002 by agar dilution method; format: functional
[20] = system: Enterococcus faecalis; assay: Antibacterial activity against vancomycin-resistant Enterococcus faecalis ATCC 51299 by agar dilution method; format: functional
[21] = system: Pseudomonas aeruginosa; assay: Antibacterial activity against Pseudomonas aeruginosa PAO1 by agar dilution method; format: functional
[22] = system: Enterococcus faecalis; assay: Potency index, ratio of vancomycin MIC to test compound MIC for vancomycin-resistant Enterococcus faecalis 09-9; format: functional
[23] = system: Escherichia coli; assay: Antibacterial activity against extended-spectrum beta-lactamase-negative Escherichia coli 09-20 by agar dilution method; format: functional
[24] = system: Escherichia coli; assay: Antibacterial activity against extended-spectrum beta-lactamase-negative Escherichia coli 1515 by agar dilution method; format: functional
[25] = system: Enterobacter cloacae; assay: Antibacterial activity against Enterobacter cloacae 45301 by agar dilution method; format: functional
[26] = system: Staphylococcus aureus; assay: Antibacterial activity against methicillin-sensitive Staphylococcus aureus 15 by agar dilution method; format: functional
[27] = system: Salmonella typhi; assay: Antibacterial activity against Salmonella typhi H901 by agar dilution method; format: functional, Salmonella enterica subsp. enterica serovar Typhi; conditions: Salmonella enterica
[28] = system: Enterococcus faecium; assay: Potency index, ratio of vancomycin MIC to test compound MIC for vancomycin-resistant Enterococcus faecium ATCC 700221; format: functional
[29] = system: Escherichia coli; assay: Antibacterial activity against extended-spectrum beta-lactamase-negative Escherichia coli ATCC 25922 by agar dilution method; format: functional
[30] = system: Staphylococcus aureus; assay: Antibacterial activity against methicillin-resistant Staphylococcus aureus ATCC 33591 by agar dilution method; format: functional
[31] = system: Staphylococcus epidermidis; assay: Potency index, ratio of vancomycin MIC to test compound MIC for methicillin-resistant Staphylococcus epidermidis 09-3; format: functional
[32] = system: Citrobacter freundii; assay: Antibacterial activity against Citrobacter freundii ATCC 43864 by agar dilution method; format: functional
[33] = system: Enterococcus faecium; assay: Antibacterial activity against vancomycin-sensitive Enterococcus faecium 09-10 by agar dilution method; format: functional
[34] = system: Klebsiella pneumoniae; assay: Antibacterial activity against Klebsiella pneumoniae ATCC BAA-2146 expressing NDM-1 by agar dilution method; format: functional
[35] = system: Proteus mirabilis; assay: Antibacterial activity against Proteus mirabilis 09-1 by agar dilution method; format: functional
[36] = system: Klebsiella pneumoniae; assay: Antibacterial activity against extended-spectrum beta-lactamase-negative Klebsiella pneumoniae 7 by agar dilution method; format: functional
[37] = system: Klebsiella pneumoniae; assay: Antibacterial activity against extended-spectrum beta-lactamase-negative Klebsiella pneumoniae 09-8 by agar dilution method; format: functional
[38] = system: Staphylococcus aureus; assay: Antibacterial activity against methicillin-sensitive Staphylococcus aureus ATCC 29213 by agar dilution method; format: functional
[39] = system: Staphylococcus aureus; assay: Antibacterial activity against methicillin-resistant Staphylococcus aureus 09-13 by agar dilution method; format: functional
[40] = system: Enterococcus faecium; assay: Antibacterial activity against vancomycin-resistant Enterococcus faecium ATCC 700221 by agar dilution method; format: functional
[41] = system: Pseudomonas aeruginosa; assay: Antibacterial activity against Pseudomonas aeruginosa 09-14 by agar dilution method; format: functional
[42] = system: Klebsiella aerogenes; assay: Antibacterial activity against Enterobacter aerogenes 45102 by agar dilution method; format: functional
[43] = system: Enterococcus faecalis; assay: Antibacterial activity against vancomycin-resistant Enterococcus faecalis 09-9 by agar dilution method; format: functional
[44] = system: Klebsiella pneumoniae; assay: Antibacterial activity against extended-spectrum beta-lactamase-positive Klebsiella pneumoniae ATCC 700603 by agar dilution method; format: functional

SMILES: CNC(=N)c1ccc2cc(-c3ccc(Oc4ccc(-c5cc6ccc(C(=N)NC)cc6[nH]5)cc4)cc3)[nH]c2c1
- MIC [1]: 0.25 µg/mL (≈ 0.488 µM)
- MIC [2]: > 128 µg/mL
- MIC [3]: 1 µg/mL (≈ 1.95 µM)
- MIC [4]: > 128 µg/mL
- Ratio [5]: 16 - 32
- MIC [6]: > 128 µg/mL
- MIC [7]: 1 µg/mL (≈ 1.95 µM)
- MIC [8]: 128 µg/mL (≈ 250 µM)
- MIC [9]: 1 µg/mL (≈ 1.95 µM)
- MIC [10]: 1 µg/mL (≈ 1.95 µM)
- MIC [11]: > 128 µg/mL
- MIC [12]: > 128 µg/mL
- Ratio [13]: 16 - 32
- Ratio [14]: 4 - 8
- MIC [15]: 2 µg/mL (≈ 3.9 µM)
- MIC [16]: 128 µg/mL (≈ 250 µM)
- MIC [17]: 0.5 µg/mL (≈ 0.975 µM)
- CC50 at 48 h [18]: 12.2 µg/mL (≈ 23.8 µM)
- MIC [19]: > 128 µg/mL
- MIC [20]: 1 µg/mL (≈ 1.95 µM)
- MIC [21]: > 128 µg/mL
- Ratio [22]: 128 - 256
- MIC [23]: > 128 µg/mL
- MIC [24]: 128 µg/mL (≈ 250 µM)
- MIC [25]: > 128 µg/mL
- MIC [26]: 1 µg/mL (≈ 1.95 µM)
- MIC [27]: 128 µg/mL (≈ 250 µM)
- Ratio [28]: 128 - 256
- MIC [29]: 128 µg/mL (≈ 250 µM)
- MIC [30]: 1 µg/mL (≈ 1.95 µM)
- Ratio [31]: 4 - 8
- MIC [32]: > 128 µg/mL
- MIC [33]: 1 µg/mL (≈ 1.95 µM)
- MIC [34]: > 128 µg/mL
- MIC [35]: > 128 µg/mL
- MIC [36]: > 128 µg/mL
- MIC [37]: > 128 µg/mL
- MIC [38]: 1 µg/mL (≈ 1.95 µM)
- MIC [39]: 0.5 µg/mL (≈ 0.975 µM)
- MIC [40]: 0.5 µg/mL (≈ 0.975 µM)
- MIC [41]: > 128 µg/mL
- MIC [42]: > 128 µg/mL
- MIC [43]: 1 µg/mL (≈ 1.95 µM)
- MIC [44]: > 128 µg/mL

SMILES: N=C(c1ccc2cc(-c3ccc(Oc4ccc(-c5cc6ccc(C(=N)N7CCC(N8CCCC8)CC7)cc6[nH]5)cc4)cc3)[nH]c2c1)N1CCC(N2CCCC2)CC1
- MIC [1]: 3 to 8 µg/mL (≈ 3.95 to 10.5 µM)
- MIC [2]: > 128 µg/mL
- MIC [3]: 8 µg/mL (≈ 10.5 µM)
- MIC [4]: > 128 µg/mL
- MIC [6]: > 128 µg/mL
- MIC [7]: 8 µg/mL (≈ 10.5 µM)
- MIC [8]: 64 µg/mL (≈ 84.3 µM)
- MIC [9]: 8 µg/mL (≈ 10.5 µM)
- MIC [10]: 8 µg/mL (≈ 10.5 µM)
- MIC [11]: > 128 µg/mL
- MIC [12]: 128 µg/mL (≈ 169 µM)
- MIC [15]: 8 µg/mL (≈ 10.5 µM)
- MIC [16]: 128 µg/mL (≈ 169 µM)
- MIC [17]: 8 µg/mL (≈ 10.5 µM)
- CC50 at 48 h [18]: 1.1 µg/mL (≈ 1.45 µM)
- MIC [19]: > 128 µg/mL
- MIC [20]: 8 µg/mL (≈ 10.5 µM)
- MIC [21]: > 128 µg/mL
- MIC [23]: 32 µg/mL (≈ 42.2 µM)
- MIC [24]: 64 µg/mL (≈ 84.3 µM)
- MIC [25]: 64 µg/mL (≈ 84.3 µM)
- MIC [26]: 8 µg/mL (≈ 10.5 µM)
- MIC [27]: 32 µg/mL (≈ 42.2 µM)
- MIC [29]: 32 µg/mL (≈ 42.2 µM)
- MIC [30]: 8 µg/mL (≈ 10.5 µM)
- MIC [32]: > 128 µg/mL
- MIC [33]: 8 µg/mL (≈ 10.5 µM)
- MIC [34]: 128 µg/mL (≈ 169 µM)
- MIC [35]: > 128 µg/mL
- MIC [36]: 128 µg/mL (≈ 169 µM)
- MIC [37]: 128 µg/mL (≈ 169 µM)
- MIC [38]: 8 µg/mL (≈ 10.5 µM)
- MIC [39]: 8 µg/mL (≈ 10.5 µM)
- MIC [40]: 8 µg/mL (≈ 10.5 µM)
- MIC [41]: > 128 µg/mL
- MIC [42]: 128 µg/mL (≈ 169 µM)
- MIC [43]: 16 µg/mL (≈ 21.1 µM)
- MIC [44]: > 128 µg/mL

SMILES: CC(C)NC(=N)c1ccc2cc(-c3ccc(Oc4ccc(-c5cc6ccc(C(=N)NC(C)C)cc6[nH]5)cc4)cc3)[nH]c2c1
- MIC [1]: 1 µg/mL (≈ 1.76 µM)
- MIC [2]: 64 µg/mL (≈ 113 µM)
- MIC [3]: 1 µg/mL (≈ 1.76 µM)
- MIC [4]: 64 µg/mL (≈ 113 µM)
- MIC [6]: 128 µg/mL (≈ 225 µM)
- MIC [7]: 1 µg/mL (≈ 1.76 µM)
- MIC [8]: 32 µg/mL (≈ 56.3 µM)
- MIC [9]: 1 µg/mL (≈ 1.76 µM)
- MIC [10]: 1 µg/mL (≈ 1.76 µM)
- MIC [11]: 64 µg/mL (≈ 113 µM)
- MIC [12]: 64 µg/mL (≈ 113 µM)
- MIC [15]: 1 µg/mL (≈ 1.76 µM)
- MIC [16]: 16 µg/mL (≈ 28.1 µM)
- MIC [17]: 1 µg/mL (≈ 1.76 µM)
- CC50 at 48 h [18]: 7.3 µg/mL (≈ 12.8 µM)
- MIC [19]: 64 µg/mL (≈ 113 µM)
- MIC [20]: 2 µg/mL (≈ 3.52 µM)
- MIC [21]: > 128 µg/mL
- MIC [23]: 32 µg/mL (≈ 56.3 µM)
- MIC [24]: 32 µg/mL (≈ 56.3 µM)
- MIC [25]: 64 µg/mL (≈ 113 µM)
- MIC [26]: 1 µg/mL (≈ 1.76 µM)
- MIC [27]: 32 µg/mL (≈ 56.3 µM)
- MIC [29]: 16 µg/mL (≈ 28.1 µM)
- MIC [30]: 1 µg/mL (≈ 1.76 µM)
- MIC [32]: 64 µg/mL (≈ 113 µM)
- MIC [33]: 2 µg/mL (≈ 3.52 µM)
- MIC [34]: 64 µg/mL (≈ 113 µM)
- MIC [35]: 64 µg/mL (≈ 113 µM)
- MIC [36]: 64 µg/mL (≈ 113 µM)
- MIC [37]: 64 µg/mL (≈ 113 µM)
- MIC [38]: 1 µg/mL (≈ 1.76 µM)
- MIC [39]: 1 µg/mL (≈ 1.76 µM)
- MIC [40]: 1 µg/mL (≈ 1.76 µM)
- MIC [41]: 64 µg/mL (≈ 113 µM)
- MIC [42]: 64 µg/mL (≈ 113 µM)
- MIC [43]: 2 µg/mL (≈ 3.52 µM)
- MIC [44]: 64 µg/mL (≈ 113 µM)

From ChEMBL document CHEMBL4002623, “Synthesis and in vitro activity of dicationic indolyl diphenyl ethers as novel potent antibiotic agents against drug-resistant bacteria” (Bioorg Med Chem Lett, 2017)
